Measurements: ChEMBL document CHEMBL1201862, “PubChem BioAssay data set” (2004)
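A five-concentration, 48-hour dose response in 96-well plates underlies each endpoint, interpolated linearly between surrounding concentrations. At the GI50, growth is halved.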 The source made the active and inactive calls. Rule as the data show it: active = GI50 up to about 1.1 µM and inactive = higher.

Columns and labels:
Assay in all cases: DTP human tumour cell line panel, 48 h
[1] = system: ACHN
[2] = system: EKVX
[3] = system: HOP-62
[4] = system: IGROV-1
[5] = system: K562
[6] = system: KM12
[7] = system: M14
[8] = system: MOLT-4
[9] = system: OVCAR-3
[10] = system: OVCAR-4
[11] = system: OVCAR-8
[12] = system: SF-295
[13] = system: SF-539
[14] = system: SK-MEL-28
[15] = system: SK-OV-3
[16] = system: SNB-19
[17] = system: SR
[18] = system: UACC-62
[19] = system: SK-MEL-5

Measured: GI50

O=c1oc2cc(O)ccc2c2[nH]c3cc(O)ccc3c12
inactive: [1] 22.7 µM | [2] 26.5 µM | [3] 24.3 µM | [4] 23.1 µM | [5] 45.9 µM | [6] 20.9 µM | [7] 36.4 µM | [8] 34 µM | [9] 20.7 µM | [10] 37.4 µM | [11] 27.2 µM | [12] 66.8 µM | [13] 18.9 µM | [14] 31.7 µM | [15] 22.2 µM | [16] 18.6 µM | [17] 21.2 µM | [18] 15.5 µM

Cc1cc(Br)cc(C)c1NC(=O)C(=O)C(C(=O)c1ccc(Cl)c(Cl)c1)C1OC(=O)c2ccccc21 (stereo unspecified)
inactive: [1] 28.5 µM | [2] 4.19 µM | [3] 43.6 µM | [4] 91.2 µM | [5] 28.2 µM | [6] 36.8 µM | [7] > 100 µM | [8] 12.6 µM | [9] 37.1 µM | [10] > 100 µM | [11] > 100 µM | [12] 90.6 µM | [13] 25.2 µM | [15] 49.5 µM | [16] 82 µM | [17] 7.71 µM | [18] 59.8 µM

CC1(C)Cc2cc(C(=O)O)c3c(c2C1=O)COCC3
inactive: [1] > 100 µM | [2] > 100 µM | [3] > 100 µM | [4] > 100 µM | [5] > 100 µM | [6] > 100 µM | [7] > 100 µM | [8] > 100 µM | [9] > 100 µM | [10] > 100 µM | [11] > 100 µM | [12] > 100 µM | [13] > 100 µM | [19] > 100 µM | [15] > 100 µM | [16] > 100 µM | [17] > 100 µM | [18] > 100 µM

ON/N=C/c1cc2c(cc1Br)OCO2
inactive: [1] > 386 µM | [2] 176 µM | [3] > 386 µM | [4] > 386 µM | [5] > 386 µM | [6] > 386 µM | [8] 383 µM | [9] 295 µM | [11] > 386 µM | [12] > 386 µM | [13] > 386 µM | [14] > 386 µM | [19] > 386 µM | [15] > 386 µM | [16] > 386 µM | [17] > 386 µM | [18] > 386 µM

C#CC1(O)CCC2[C@@H]3CCc4cc(Oc5nc(F)nc(-c6c7ccccc7c(SCC)n6CCC)n5)ccc4C3CC[C@@]21C (stereo partly specified)
inactive: [1] > 100 µM | [2] 59.6 µM | [3] > 100 µM | [4] 94.6 µM | [5] 51.4 µM | [6] > 100 µM | [7] 40.5 µM | [8] 28.7 µM | [9] > 100 µM | [10] > 100 µM | [11] > 100 µM | [12] 65.8 µM | [13] 58.9 µM | [14] 50.7 µM | [19] 63.8 µM | [15] > 100 µM | [17] 34.7 µM | [18] 89.7 µM

CCOC(=O)C1C(=O)CC(=O)C2CCCCC21 (stereo unspecified)
inactive: [1] > 100 µM | [2] > 100 µM | [3] > 100 µM | [4] > 100 µM | [5] > 100 µM | [6] > 100 µM | [7] > 100 µM | [8] > 100 µM | [9] > 100 µM | [10] > 100 µM | [11] > 100 µM | [12] > 100 µM | [13] > 100 µM | [14] > 100 µM | [19] > 100 µM | [15] > 100 µM | [16] > 100 µM | [18] > 100 µM

O=C(N/C(=C\c1c(O)ccc2ccccc12)c1nc2ccccc2[nH]1)c1ccccc1
inactive: [1] > 100 µM | [2] > 100 µM | [3] 25.9 µM | [4] > 100 µM | [5] > 100 µM | [6] > 100 µM | [7] > 100 µM | [8] > 100 µM | [9] > 100 µM | [10] > 100 µM | [11] 54.8 µM | [13] 29.1 µM | [14] > 100 µM | [19] > 100 µM | [15] 86.3 µM | [16] 53.8 µM | [18] > 100 µM

CN(C(=O)C12C3C4C1C1C2C3C41C#N)C(C)(C)C (stereo unspecified)
inactive: [1] > 100 µM | [2] > 100 µM | [3] > 100 µM | [4] > 100 µM | [5] > 100 µM | [6] > 100 µM | [7] > 100 µM | [8] > 100 µM | [9] > 100 µM | [10] > 100 µM | [11] > 100 µM | [12] > 100 µM | [13] > 100 µM | [14] > 100 µM | [19] > 100 µM | [15] > 100 µM | [16] > 100 µM | [18] > 100 µM

CC(C)(C)c1cc(CCCCCCCC2(CCCCCCCc3cc(C(C)(C)C)cc(C(C)(C)C)c3)OC(COCCOCCCCCC#N)C(COCCOCCCCCC#N)O2)cc(C(C)(C)C)c1 (stereo unspecified)
inactive: [1] > 100 µM | [2] > 100 µM | [3] > 100 µM | [4] > 100 µM | [5] > 100 µM | [6] > 100 µM | [7] > 100 µM | [9] > 100 µM | [10] > 100 µM | [11] > 100 µM | [12] > 100 µM | [14] > 100 µM | [19] > 100 µM | [15] > 100 µM | [16] > 100 µM | [18] > 100 µM

C[N+](C)(C)CC1CCCC(C[N+](C)(C)C)C1O (stereo unspecified)
inactive: [1] > 100 µM | [2] > 100 µM | [3] > 100 µM | [4] > 100 µM | [5] > 100 µM | [6] > 100 µM | [7] > 100 µM | [8] > 100 µM | [9] > 100 µM | [10] > 100 µM | [11] > 100 µM | [12] > 100 µM | [13] > 100 µM | [14] > 100 µM | [19] > 100 µM | [15] > 100 µM | [17] > 100 µM | [18] > 100 µM

CN(C)CC1CCCC(CN(C)C)C1OC(=O)c1ccccc1 (stereo unspecified)
inactive: [1] > 100 µM | [2] > 100 µM | [3] > 100 µM | [4] > 100 µM | [5] > 100 µM | [6] > 100 µM | [7] > 100 µM | [8] > 100 µM | [9] > 100 µM | [10] > 100 µM | [11] > 100 µM | [12] > 100 µM | [13] > 100 µM | [14] > 100 µM | [19] > 100 µM | [15] > 100 µM | [17] > 100 µM | [18] > 100 µM

COc1cc(OC)c2c(=O)cc(-c3ccc(OC)c(OC)c3OC)oc2c1
inactive: [1] 83.6 µM | [2] > 100 µM | [3] 27.7 µM | [4] > 100 µM | [5] > 100 µM | [6] > 100 µM | [7] > 100 µM | [9] > 100 µM | [10] 54.3 µM | [12] 52.2 µM | [13] 31.9 µM | [14] > 100 µM | [15] > 100 µM | [16] > 100 µM | [18] > 100 µM

O=C1CCC2(c3ccccc3)Nc3cc(Cl)ccc3N12 (stereo unspecified)
inactive: [1] 26.9 µM | [2] 33.3 µM | [3] 25.4 µM | [4] 41.2 µM | [5] 32 µM | [6] 27.6 µM | [7] 30.1 µM | [8] 21.6 µM | [9] 21.8 µM | [10] 35.2 µM | [11] 38.6 µM | [12] 27.4 µM | [13] 41.3 µM | [14] 36.2 µM | [19] 16.9 µM | [15] 43.8 µM | [18] 19 µM

Cc1cccc(N2CCN(S(=O)(=O)c3ccc(Cl)cc3)C2=N)c1C
inactive: [1] > 100 µM | [4] 25.1 µM | [5] 33.1 µM | [6] > 100 µM | [7] > 100 µM | [8] 35 µM | [11] 93.8 µM | [12] 77.4 µM | [13] > 100 µM | [14] 38.6 µM | [19] > 100 µM | [15] > 100 µM | [16] > 100 µM | [17] 18.1 µM | [18] 38.4 µM

N#CC1(C#N)C=CC(=C2OCC3CCCN23)C=C1 (stereo unspecified)
inactive: [1] > 100 µM | [3] > 100 µM | [4] > 100 µM | [5] > 100 µM | [6] > 100 µM | [7] > 100 µM | [8] > 100 µM | [10] > 100 µM | [11] > 100 µM | [12] > 100 µM | [13] > 100 µM | [19] 37.8 µM | [15] > 100 µM | [16] > 100 µM | [18] > 100 µM

O=C1C=C/C(=N\c2ccc3c(c2)C(Br)c2ccccc2-3)O1 (stereo unspecified)
inactive: [1] > 100 µM | [2] 52 µM | [3] > 100 µM | [4] > 100 µM | [5] 42.8 µM | [7] > 100 µM | [8] 26.8 µM | [9] > 100 µM | [11] 72.6 µM | [12] > 100 µM | [13] > 100 µM | [14] > 100 µM | [15] > 100 µM | [16] > 100 µM | [17] 20.2 µM | [18] 61.5 µM
